Experimental data from patent US10202391B2, “Chemical compounds” (AstraZeneca AB, priority 2015, dated 2019).

Assays:
ERK2 = molecular target: T1, ERK2 (Homo sapiens, UniProt P28482); assay: ERK2 Rapidfire Mass Spectrometry Inhibition of Catalysis Assay; type: biochemical; conditions: 1.2 nM ERK2, 16 μM Erktide, 120 μM ATP (measured Km), 15 minute pre-incubation; read-out: ERK2 Mass Spectrometry Enzyme IC50
T1 construct: made in house
Procedure: (§1) All compounds or DMSO (dimethyl sulphoxide) for the ERK2 Mass Spectrometry and A375 phospho-p90RSK assays were dispensed from source plates containing compounds at 10 mM in 100% (v/v) DMSO or 100% DMSO, directly into assay plates using an Echo 555 Acoustic dispenser (Labcyte Inc™). Depending on the assay, two separate plate preparations were followed. In Workflow A, 10 mM compound stocks were diluted 1:100 using a fixed-tip 96-head Agilent VPrep liquid handler (Agilent Technologies, Santa Clara, Calif.) to give four intermediate dilutions (10 mM, 100 μM, 1 μM, 10 nM). In Workflow B, 10 mM compound stocks were diluted 1:10 using a Tecan Freedom Evo (Tecan Group Ltd., Switzerland), and then 1:100 using the Echo 555 and Labcyte LX to produce three intermediate dilutions across three Labcyte qualified source plates (1 mM, 10 μM, 100 nM). These intermediate dilution plates were then used by the Echo 555 to generate final assay-ready compound plates with a 12 point dose range (10, 3, 1, 0.25, 0.1, 0.03, 0.01, 0.0025, 0.001, 0.0003, 0.0001, 0.0000125 μM) in order to calculate compound IC50s, with a total DMSO concentration in the assay of 1%. For the ERK2 Mass Spectrometry assay Workflow B was used. For the A375 phospho-p90RSK cell assay, the intermediate 1:100 dilution plate described in Workflow A was used by the Echo to dispense compounds and DMSO directly into the cell plates with a 12 point dose range (30, 10, 3.125, 1.25, 0.3, 0.1, 0.03125, 0.0125, 0.003, 0.001, 0.0003125, 0.00003 μM) in order to calculate compound IC50's, with a total DMSO concentration in the assay of 0.3%.
ERK2 Rapidfire Mass Spectrometry Inhibition of Catalysis Assay
MEK U911-activated ERK2 protein was expressed and purified in-house. Enzyme and substrate solutions were made up in assay buffer consisting of 50 mM Tris (pH 7.5), 10 mM MgCl2, 0.1 mM EGTA (ethylene glycol tetraacetic acid), 10 mM DTT (dithiothreitol) and 0.01% (v/v) CHAPS (3-[(3-Cholamidopropyl)dimethylammonio]-1-propanesulfonate). 1.2 nM ERK2 protein was prepared in assay buffer and 10 μl was dispensed into each well of a polypropylene, 384-well plate (#781201, Greiner) containing test and reference control compounds. […] The reaction was allowed to progress for 20 minutes at room temperature before being quenched by the addition of 80 al 1% (v/v) formic acid. The assay plates were then run on the RapidFire Mass Spectrometry platform (Agilent) to measure substrate (unphosphorylated Erktide) and product (phosphorylated Erktide) levels. Data was analysed and IC50's (half maximal inhibitory concentration) were calculated using Genedata Screener® software.

[1] = tested on: phospho-p90RSK in A375 cell line; assay: A375 Phospho-p90RSK Cellular Assay; type: cell-based, human; conditions: Homo sapiens, A375 cells, 2 hours incubation
Procedure: as §1
A375 Phospho-p90RSK Cellular Assay
A375 cells were cultured in cell media composed of DMEM (Dulbecco's modified Eagle's medium), 10% (v/v) Foetal Calf Serum and 1% (v/v) L-Glutamine. After harvesting, cells were dispensed into black, 384-well Costar plates (#3712, Corning) to give 2400 cells per well in a total volume of 40 μl cell media, and were incubated overnight at 37° C., 90% relative humidity and 5% CO2 in a rotating incubator. Test compounds and reference controls were dosed directly into the cell plates using a Labcyte Echo 555 acoustic dispenser. The cell plates were then incubated for 2 hours at 37° C. before being fixed by the addition of 20 μl 12% formaldehyde in PBS/A (4% final concentration), followed by a 20 minute room temperature incubation, and then a 2× wash with 150 μl PBS/A (phosphate buffered saline containing albumin) using a BioTek ELx405 platewasher. Cells were permeabilised with 20 μl 0.1% Triton X-100 in PBS/A for 20 minutes at room temperature, and then washed 1× with 100 μl PBS/A. Primary phospho-p90RSK (Thr359) (D1E9) rabbit monoclonal antibody (#8753, Cell Signaling Technology) was diluted 1:1000 in assay buffer (0.05% (v/v) Tween, 5% (v/v) Foetal Calf Serum, in PBS/A), 20 μl added per well, and plates were incubated at 4° C. overnight. Cell plates were washed 2× with 200 μl PBS/T (phosphate buffered saline containing Tween-20), then 20 μl 1:500 dilution in assay buffer of Alexa Fluor® 647 goat anti-rabbit IgG secondary antibody (#A31573, Molecular Probes, Life Technologies), with a 1:5000 dilution of Hoechst 33342, was added per well. Following a 90 minute incubation at room temperature, plates were washed 2× with 200 μl PBS/T, and 40 μl PBS/A was added per well. Stained cell plates were covered with black lid seals, and then read on a Cellomics ArrayScan™ VTI imaging platform (Thermo Scientific), using an XF53 filter with 10× objective, with a LED light source set-up to analyse nuclear staining with Hoechst 33342 (405 nm) and secondary antibody staining of phospho-p90RSK (647 nm). Data was analysed and IC50's were calculated using Genedata Screener® software.

T1 sequence (P28482 whole entry): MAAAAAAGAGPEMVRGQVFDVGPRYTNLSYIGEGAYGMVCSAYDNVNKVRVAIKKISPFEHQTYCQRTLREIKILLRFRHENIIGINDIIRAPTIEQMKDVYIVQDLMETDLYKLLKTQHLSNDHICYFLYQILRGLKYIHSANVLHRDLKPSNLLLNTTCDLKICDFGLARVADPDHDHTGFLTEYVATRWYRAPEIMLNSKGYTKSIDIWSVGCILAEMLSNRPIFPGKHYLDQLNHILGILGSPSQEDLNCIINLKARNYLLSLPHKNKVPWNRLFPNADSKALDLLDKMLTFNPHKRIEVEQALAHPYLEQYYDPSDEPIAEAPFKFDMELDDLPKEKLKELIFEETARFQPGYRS

IC50 (ERK2) | IC50 ([1]; A-375) | IC50 ([1]; A-375, 2 h) | Structure (SMILES)
0.6 nM | 40 nM |  | COc1cccc(CN2C(=O)c3nc(-c4nc(Nc5ccnn5C)ncc4C)cn3C[C@@H]2C)c1 [Example 23, (S)-7-(3-Methoxybenzyl)-6-methyl-2-(5-methyl-2-((1-methyl-1H-pyrazol-5-yl)amino)pyrimidin-4-yl)-6,7-dihydroimidazo[1,2-a]pyrazin-8(5H)-one]
1.8 nM | 70 nM |  | COC[C@H]1Cn2cc(-c3nc(Nc4ccnn4C)ncc3C)nc2C(=O)N1Cc1cccc(C(F)(F)F)n1 [Example 39, (R)-6-(Methoxymethyl)-2-(5-methyl-2-((1-methyl-1H-pyrazol-5-yl)amino)pyrimidin-4-yl)-7-((6-(trifluoromethyl)pyridin-2-yl)methyl)-6,7-dihydroimidazo[1,2-a]pyrazin-8(5H)-one]
0.6 nM | 11 nM |  | Cc1cnc(Nc2ccnn2C)nc1-c1cn2c(n1)C(=O)N(Cc1cccc(C(F)F)c1)[C@@H](C)C2 [Example 21, (S)-7-(3-(Difluoromethyl)benzyl)-6-methyl-2-(5-methyl-2-((1-methyl-1H-pyrazol-5-yl)amino)pyrimidin-4-yl)-6,7-dihydroimidazo[1,2-a]pyrazin-8(5H)-one]
1.5 nM | 130 nM |  | COC[C@H]1Cn2cc(-c3nc(Nc4ccnn4C)ncc3C)nc2C(=O)N1Cc1cccc(OC)c1 [Example 41, (R)-7-(3-Methoxybenzyl)-6-(methoxymethyl)-2-(5-methyl-2-((1-methyl-1H-pyrazol-5-yl)amino)pyrimidin-4-yl)-6,7-dihydroimidazo[1,2-a]pyrazin-8(5H)-one]
0.5 nM | 38 nM |  | COc1cccc(CN2C(=O)c3nc(-c4nc(Nc5ccnn5C)ncc4Cl)cn3C[C@@H]2C)c1 [Example 7, (S)-2-(5-Chloro-2-((1-methyl-1H-pyrazol-5-yl)amino)pyrimidin-4-yl)-7-(3-methoxybenzyl)-6-methyl-6,7-dihydroimidazo[1,2-a]pyrazin-8(5H)-one]
1.8 nM | 630 nM |  | C[C@H]1Cn2cc(-c3ccnc(Nc4ccnn4C)n3)nc2C(=O)N1Cc1ccc(F)c(F)c1 [Example 4, (S)-7-(3,4-Difluorobenzyl)-6-methyl-2-(2-((1-methyl-1H-pyrazol-5-yl)amino)pyrimidin-4-yl)-6,7-dihydroimidazo[1,2-a]pyrazin-8(5H)-one]
0.8 nM | 19 nM |  | Cc1cnc(Nc2ccnn2C)nc1-c1cn2c(n1)C(=O)N(Cc1cc(F)cc(F)c1)[C@@H](C)C2 [Example 22, (S)-7-(3,5-Difluorobenzyl)-6-methyl-2-(5-methyl-2-((1-methyl-1H-pyrazol-5-L)amino)pyrimidin-4-yl)-6,7-dihydroimidazo[1,2-a]pyrazin-8(5H)-one]
0.5 nM | 81 nM |  | C[C@H]1Cn2cc(-c3ccnc(Nc4ccnn4C)n3)nc2C(=O)N1Cc1ccc(F)c(Cl)c1 [Example 3, (S)-7-(3-Chloro-4-fluorobenzyl)-6-methyl-2-(2-((1-methyl-1H-pyrazol-5-yl)amino)pyrimidin-4-yl)-6,7-dihydroimidazo[1,2-a]pyrazin-8(5H)-one]
 | 93 nM |  | COC[C@@H]1Cn2cc(-c3nc(Nc4ccnn4C)ncc3C)nc2C(=O)N1Cc1ccc(F)c(F)c1 [Example 35, Ethanesulfonic acid adduct of (S)-7-(3,4-difluorobenzyl)-6-(methoxymethyl)-2-(5-methyl-2-((1-methyl-1H-pyrazol-5-yl)amino)pyrimidin-4-yl)-6,7-dihydroimidazo[1,2-a]pyrazin-8(5H)-one]

The next lines start with the compound.

Structure (SMILES) | IC50 (ERK2) | IC50 ([1]; A-375) | IC50 ([1]; A-375, 2 h)
Cc1cnc(Nc2ccnn2C)nc1-c1cn2c(n1)C(=O)N(Cc1cc(C(F)(F)F)ncn1)[C@@H](C)C2 [Example 32, (S)-6-Methyl-2-(5-methyl-2-((1-methyl-1H-pyrazol-5-yl)amino)pyrimidin-4-yl)-7-((6-(trifluoromethyl)pyrimidin-4-yl)methyl)-6,7-dihydroimidazo[1,2-a]pyrazin-8(5H)-one] | 0.9 nM | 99 nM | 
COC[C@H]1Cn2cc(-c3nc(Nc4ccnn4C)ncc3C)nc2C(=O)N1Cc1cccc(Cl)c1 [Example 17, (R)-7-(3-Chlorobenzyl)-6-(methoxymethyl)-2-(5-methyl-2-((1-methyl-1H-pyrazol-5-yl)amino)pyrimidin-4-yl)-6,7-dihydroimidazo[1,2-a]pyrazin-8(5H)-one] | 0.9 nM | 5.2 nM | 
Cc1cnc(Nc2ccnn2C)nc1-c1cn2c(n1)C(=O)N(Cc1cccc(C(F)(F)F)n1)[C@@H](C)C2 [Example 27, (S)-6-Methyl-2-(5-methyl-2-((1-methyl-1H-pyrazol-5-yl)amino)pyrimidin-4-yl)-7-((6-(trifluoromethyl)pyridin-2-yl)methyl)-6,7-dihydroimidazo[1,2-a]pyrazin-8(5H)-one] | 0.8 nM | 77 nM | 
Cc1cnc(Nc2ccnn2C)nc1-c1cn2c(n1)C(=O)N(Cc1cccc(C(F)F)c1)CC2 [Example 14, 7-(3-(Difluoromethyl)benzyl)-2-(5-methyl-2-((1-methyl-1H-pyrazol-5-yl)amino)pyrimidin-4-yl)-6,7-dihydroimidazo[1,2-a]pyrazin-8(5H)-one] | 0.3 nM | 24 nM | 
Cc1cnc(Nc2ccnn2C)nc1-c1cn2c(n1)C(=O)N(Cc1cccc(Cl)c1)[C@@H](C)C2 [Example 19, (S)-7-(3-Chlorobenzyl)-6-methyl-2-(5-methyl-2-((1-methyl-1H-pyrazol-5-yl)amino)pyrimidin-4-yl)-6,7-dihydroimidazo[1,2-a]pyrazin-8(5H)-one] | 0.5 nM | 5.3 nM | 
Cc1cnc(Nc2ccnn2C)nc1-c1cn2c(n1)C(=O)N(Cc1ccc(F)c(F)c1)[C@@H](C)C2 [Example 20, (S)-7-(3,4-Difluorobenzyl)-6-methyl-2-(5-methyl-2-((1-methyl-1H-pyrazol-5-yl)amino)pyrimidin-4-yl)-6,7-dihydroimidazo[1,2-a]pyrazin-8(5H)-one] | 0.4 nM |  | 38 nM
COC[C@H]1Cn2cc(-c3nc(Nc4ccnn4C)ncc3C)nc2C(=O)N1Cc1cccc(C(F)F)c1 [Example 38, (R)-7-(3-(Difluoromethyl)benzyl)-6-(methoxymethyl)-2-(5-methyl-2-((1-methyl-1H-pyrazol-5-yl)amino)pyrimidin-4-yl)-6,7-dihydroimidazo[1,2-a]pyrazin-8(5H)-one] | 0.7 nM | 8 nM | 
Cc1cnc(Nc2ccnn2C)nc1-c1cn2c(n1)C(=O)N(Cc1cccc(C(F)F)n1)[C@@H](C)C2 [Example 25, (S)-7-((6-(Difluoromethyl)pyridin-2-yl)methyl)-6-methyl-2-(5-methyl-2-((1-methyl-1H-pyrazol-5-yl)amino)pyrimidin-4-yl)-6,7-dihydroimidazo[1,2-a]pyrazin-8(5H)-one] | 0.7 nM | 130 nM | 
